This note sets out measurements from paper PMC12128024, “Copper(II) Cyclopeptides with High ROS-Mediated Cytotoxicity” (Bioconjugate Chemistry, 2025).

The IC50 is the concentration at which inhibition is half-maximal. A low value points to greater potency.

A short description of assay [1]: Fluorescence titration of cyclopeptides with Cu(II) ions (DynaFit fit). To be noted: 2 μM cyclopeptide, 1 mM phosphate buffer, 10 mM NaCl, pH 6.5; 1: 1:2 model (cyclopeptide:metal); 2: simplified model with 1:1 and 2:1 species; read-out: global dissociation constant K D. Format: binding. The text has this: While the 2,2′-bipyridine ligand is known to be weakly emissive and for all practical purposes considered nonfluorescent, , the 5′-amido-[2,2′-bipyridine]-5-carboxamide unit in the βAlaBpy building block is highly emissive, displaying an intense emission band at c.a. 410 nm with a quantum yield of 0.37. Furthermore, the fluorescence of the βAlaBpy units is quenched upon coordination to a wide range of divalent transition metal ions. We exploited this property to monitor the coordinative properties of cyclopeptides 1 and 2 in the presence of labile Cu(II) ions in aqueous media. Thus, we measured the emission spectra of 2 μM solutions of the cyclopeptides 1 and 2 in 1 mM phosphate buffer and 10 mM NaCl, pH 6.5, upon excitation at 308 nm in the presence of increasing concentrations of Cu(II) ions. […] Therefore, the affinity of the first part of the titrations cannot be determined with this experiment as it is too strong. […]
5.2. Fluorescence titration experiments
Luminescence experiments were made with a Varian Cary Eclipse Fluorescence spectrophotometer coupled to a Cary Single Cell Peltier accessory (Agilent Technologies) temperature controller. […]
emission spectrum was recorded (λex= 308 nm; λem= 410 nm) after each addition. […]

Assay [2] concerns NCI/ADR-RES cells. The assay can be described thus: ICP-MS internalization study (intracellular Cu accumulation). In kind it is cell-based. To be noted: 1 µM compound, 48 h, metallopeptides 1 eq. cyclopeptide + 1 eq. Cu(II). The method, then:
To evaluate the ability of the Cu(II) metallopeptide systems to internalize in cancer cells, ICP-MS studies were performed in NCI/ADR-RES cells after 48 h of incubation with cyclopeptides 1 and 2, as well as their corresponding 1/Cu(II) and 2/Cu(II) metallopeptide derivatives formed by mixing each cyclopeptide with 1 equiv Cu(II), and using CuCl2·2H2O both as a Cu(II) source and a control.
7.1. General methods and materials
ICP Measurements were conducted employing an Agilent 7900 ICP-MS system (Agilent Technologies, Tokyo, Japan). The sample introduction system was comprised of an autosampler, a double-pass spray chamber with Peltier system, a glass concentric nebulizer (MicroMist low-flow nebulizer, Glass Expansion, West Melbourne, Australia), and a quartz torch.
Quantification of copper concentrations was achieved using Agilent ICP-MS MassHunter 5.1, (Version D.01.01 Agilent Technologies, Tokyo, Japan). The parameters for the ICP-MS device were as follows: RF Power, 1550 W; Sample Depth, 8; Carrier Gas, 1.1 L/min; Nebulizer Pump […]
Roswell Park Memorial Institute 1640 medium (RPMI), fetal bovine serum (FBS), penicillin, and streptomycin were purchased from Invitrogen Thermo Fisher.
Ovarian tumour NCI/ADR-RES cells, obtained from the European Collection of Authenticated Cell Cultures (ECACC), were cultured at 37 °C in a 5% CO2 atmosphere in RPMI medium containing 10% FBS and supplemented with 50 U/mL penicillin and 50 U/mL streptomycin, in 75 cm2 cell culture flasks. All cell experiments were performed at 37 °C in a 5% CO 2 atmosphere with this modified RPMI, referred as “medium” or “culture medium”.
7.3. […]
The culture medium was then replaced with 3 mL of fresh medium containing 1 µM of the compound [Cu(II) (CuCl₂·2H₂O), cyclopeptide ( 1 or 2), or metallopeptide system [1/Cu(II) or 2/Cu(II); 1 eq. cyclopeptide + 1 eq. […] Lysates were digested at 95 °C overnight, diluted with 1% HNO₃ to a final volume of 5 mL, and analyzed by ICP-MS. The Cu(II) content in the culture medium (3 mL) was also measured using the same technique, yielding a value of 41.46 ng. […]

In assay [3] the test system is HCT-116 (colon carcinoma). To be noted: 48 h.
Text: (§1) IC50 is the concentration at which 50% growth inhibition is obtained and E max represents the efficacy of the compound at its maximum concentration, expressed as the maximum % cell inhibition achieved by the compound (see Section S6 and Figure S8 of the Supporting Information).
(§2) General method: cell lines and grown conditions
(§3) Non-small lung carcinoma NCI-H460, human colon carcinoma HCT-116, human glioma SF-268
(§4) and doxorubicin-resistance human mamma carcinoma NCI/ADR-RES cell lines, as well as
(§5) Eagle’s Minimal Essential Medium (EMEM) and RPMI1640 were purchased from the American Tissue Culture Collection (ATCC). Frozen cells were thawed in a 75 cm2 cell culture flask in RPMI
(§6) supplemented with 2 mM L-glutamine and 10% FBS and maintained at 37 °C in a 5% CO2
(§7) The inhibition of cell proliferation induced by the samples [1/Cu(II), 1 eq. cyclopeptide 1/3 eq. of
(§8) Cu(II); 2/Cu(II), 1 eq. cyclopeptide 2/5 eq. of Cu(II)]‚ was carried out by using MTT method for
(§9) HCT-116, NCI/ADR-RES and NCI-H460 cell lines. SF-268 cell growth inhibition induced by the
(§10) samples was assessed using a system based on crystal violet cell staining and subsequent
(§11) acetylation. Cells were seeded in a 96-well microplate (5000 cells/well for HCT-116, 10000
(§12) cells/well for SF-268 and 15000 cells/well for NCI/ADR-RES and NCI-H460 cell lines) in 100 μl
(§13) of growth medium and maintained at 37 °C for 24 h.
(§14) Then growth medium was replaced by fresh medium containing different concentrations of the
(§15) samples to be assayed and maintained at 37 °C in a 5% CO2 atmosphere for 48 h. After this
(§16) time, 10 μL MTT (5 mg/ml in PBS) were added to each well and maintained for 4 h at 37 °C in a
(§17) 5% CO2 atmosphere. Then 100 μL of 10% SDS in 0.01 M HCl were added to each well an
(§18) incubated for 12-14 h under the same experimental conditions. Absorbance due to formation
(§19) was detected in a Tecan infinity M1000 Pro reader using a wavelength of 595 nm. All assays
were performed with triplicate points.
b) Crystal violet cell staining
(§20) The samples dissolved in water were added, maintaining the same proportion of water in each
(§21) well (10%). After 72 h (at 37°C and in an atmosphere of 5% CO 2/95% air), the cells were fixed to
(§22) the plate with 10 μL of 11% glutaraldehyde solution, kept under agitation at room temperature,
(§23) for 15 minutes. Once fixed, the medium was removed and the cells were washed 3-4 times with
(§24) distilled water, followed by staining of the cells with 100 μL of a 0.1% crystal violet solution. This
(§25) solution was prepared by diluting 0.1g of crystal violet in 100 mL of buffer composed of 200 mM
(§26) phosphoric acid, 200 mM formic acid and 200 mM 2-(N-morpholino)-ethane sulphonic acid
(§27) (MES) at pH 6. The plate was kept shaking at room temperature for 15 minutes. The dye was
(§28) removed, washed 3-4 times with distilled water and dried. 100 μL of 10% acetic acid was then
(§29) added and kept under agitation for 15 minutes, at room temperature, so that the staining was
(§30) homogeneous in all wells. Finally, an absorbance reading of the plates was performed at a
(§31) wavelength of 595 nm (Tecan M1000 Infinite Pro). The assay was performed with triplicate points.
(§32) Data were expressed as the growth inhibition percentage calculated in basis on the equation: %
(§33) inhibition= 100 – [(AO × 100) / AT]. Where AT is the measured absorbance in wells containing
(§34) compounds and AO is the absorbance measured in blank wells (cells with medium and vehicle).
(§35) The inhibitory potency of compounds was calculated by constructing concentration-% growth
(§36) inhibition curves, and extrapolating IC50 values (concentration of compound that inhibits cells
The test system of assay [4] is SF-268 (human glioma). To be noted: 72 h.
Text: as §1, §2, §3, §4, §5, §6, §7, §8, §9, §10, §11, §12, §13, §14, §15, §16, §17, §18, §19
were performed with triplicate points.
b) Crystal violet cell staining
as §20, §21, §22, §23, §24, §25, §26, §27, §28, §29, §30, §31, §32, §33, §34, §35, §36
Assay [5] relates to NCI/ADR-RES (doxorubicin resistant ovarian carcinoma). To be noted: 48 h.
Text: as §1, §2, §3, §4, §5, §6, §7, §8, §9, §10, §11, §12, §13, §14, §15, §16, §17, §18, §19
were performed with triplicate points.
b) Crystal violet cell staining
as §20, §21, §22, §23, §24, §25, §26, §27, §28, §29, §30, §31, §32, §33, §34, §35, §36
The subject of assay [6] is NCI-H460 (lung carcinoma). To be noted: 48 h.
Text: as §1, §2, §3, §4, §5, §6, §7, §8, §9, §10, §11, §12, §13, §14, §15, §16, §17, §18, §19
were performed with triplicate points.
b) Crystal violet cell staining
as §20, §21, §22, §23, §24, §25, §26, §27, §28, §29, §30, §31, §32, §33, §34, §35, §36
Assay [7] has as its system nontransformed lung fibroblast (MRC-5). To be noted: 48 h.
Text: as §1, §2, §3, §4, §5, §6, §7, §8, §9, §10, §11, §12, §13, §14, §15, §16, §17, §18, §19
were performed with triplicate points.
b) Crystal violet cell staining
as §20, §21, §22, §23, §24, §25, §26, §27, §28, §29, §30, §31, §32, §33, §34, §35, §36

The structures appear in SMILES notation. *1 amine or outer side, *2 acyl side, *3 side chain or, on linkers, in order; H or OH if unused. Where a SMILES comes first, the peptide text is derived from it. [ ]: non-standard residue; d: D form. X1 = O=C(c1ccc(-c2ccc(N[*:1])cn2)nc1)[*:2]; βAla = NCCC(=O)O

For the molecule `N=C(N)NCCC[C@@H]1NC(=O)c2ccc(nc2)-c2ccc(cn2)NC(=O)CCNC(=O)[C@H](CCCNC(=N)N)NC(=O)[C@H](CCCNC(=N)N)NC(=O)[C@H](CCCNC(=N)N)NC(=O)c2ccc(nc2)-c2ccc(cn2)NC(=O)CCNC(=O)[C@H](CCCNC(=N)N)NC(=O)[C@H](CCCNC(=N)N)NC(=O)[C@H](CCCNC(=N)N)NC(=O)c2ccc(nc2)-c2ccc(cn2)NC(=O)CCNC(=O)[C@H](CCCNC(=N)N)NC(=O)[C@H](CCCNC(=N)N)NC1=O` [compound 2, cyclo-(βAlaBpy-Arg3)3] (cyclo(RRR[βAla][X1]RRR[βAla][X1]RRR[βAla][X1])), the Kd in assay [1] stood at 0.24 ± 0.1 µM. The “intracellular Cu(II) accumulation (ICP-MS)” value in assay [2] is “notably lower than that of the metallopeptide systems”. The “E max (maximum % cell inhibition)” value in assay [3] is 80 ± 1%; in assay [4], 92 ± 1%; in assay [5], 86 ± 1%; in assay [6] it was 92 ± 1%; in assay [7], 92 ± 1%. For the same molecule, the IC50 is over 100 µM in assay [3]; 16 ± 1 µM in assay [4]; 28 ± 1 µM in assay [5]; 21 ± 1 µM in assay [6]; 18 ± 1 µM in assay [7].
